Data: patent publication US20190147975A1, “SF3B1 SUPPRESSION AS A THERAPY FOR TUMORS HARBORING SF3B1 COPY LOSS” (DANA-FARBER CANCER INSTITUTE, INC., priority 2016, published 2019)

What was measured:
[1] = system: Hs578T, Cal51 cells; experiment: Drug sensitivity curves for splicing inhibitors in cells without and with SF3B1 suppression; type: cell-based, human
Source text: FIG. 26A is a series of graphs showing drug sensitivity curves for indicated splicing inhibitors (“NSC-95397”, “pladienolide B”, “spliceostatin A”) in cells (“Hs578T”, “Cal51”) without and with SF3B1 suppression.

[2] = system: SF3B1; experiment: Immunoblot of SF3B1 expression in Cal51 cells treated with DUB inhibitors; type: cell-based, human; conditions: treated for 4 or 24 hours
Description: FIG. 37 is an immunoblot showing SF3B1 expression in Cal51 cells treated with de-ubiquitinase (DUB) inhibitors (“PR-619”, “b-AP15”, “SJB3-019A”) for 4 or 24 hours. For all figures, *p<0.05, **p<0.01, ***p<0.001 unless otherwise indicated, and error bars represent +/−standard deviation.
In addition to SF3B1 RNA interference and SF3B inhibition, SF3B1 suppression can be exerted by deubiquitinase (DUB) inhibition. […] Therefore, DUB inhibitors may be capable of killing SF3B1^loss cells specifically.
For denaturing protein immunoblots, cells were washed in ice cold PBS and lysed in 1× RIPA buffer (10 mM Tris-Cl Ph 8.0, 1 mM EDTA, 1% Triton X-100, 0.1% SDS and 140 mM NaCl) supplemented with lx protease and phosphatase inhibitor cocktail (PI-290, Boston Bioproducts). Lysates were sonicated in a bioruptor (Diagenode) for 5 minutes (medium intensity) and cleared by centrifugation at 15000×g for 15 min at 4 C. Proteins were electrophoresed on polyacrylamide gradient gels (Life Technologies) and detected by chemiluminescence. For native western blotting, cells were washed in ice cold PBS and lysed in 1× sonication buffer (10% Glycerol, 25 mM HEPES pH 7.4, 10 mM MgCl2) supplemented with protease and phosphatase inhibitors. Coomassie blue native PAGE western blots were run according the manufacturer's instructions (Life Technologies).

[3] = system: CRISPR^frameshift-loss xenografts; experiment: Xenograft growth with doxycycline-induced SF3B1 suppression; type: in vivo, nude mice; conditions: doxycycline-induced shRNA, p=0.001
Source text: (§1) To test the effects of SF3B1 suppression in vivo, xenografts were generated using luciferase-labeled cell lines from the CRISPR^frameshift-loss and CRISPR^neutral#1 cells containing TR-shSF3B1#3. Animals were placed on doxycycline upon detection of palpable tumors. CRISPR^frameshift-loss and CRISPR^neutral#1 cells generated tumors of similar volume in the absence of doxycycline (FIG. 34; p=0.7, repeated measures ANOVA).
All animal husbandry was done with the approval of the Dana-Farber Cancer Institute IACUC. 1×10^6 CRISPR^neutral#1 or CRISPR^frameshift-loss cells expressing TR-shSF3B1 #3 were subcutaneously injected into opposing flanks of nude mice (Foxn1 nu/nu, Harlan). Animals were randomized to control group or doxycycline treatment after detection of a palpable tumor on either flank. Mice in the doxycycline treatment arm were continuously fed a doxycycline diet (2,000 ppm). Mice were sacrificed at the end of the experiment, or when endpoints were reached based on failure to thrive according to IACUC recommendation. […]
A custom image analysis pipeline was used to systematically quantify Ki67+ cells from tumor xenografts using CellProfilier. A minimum of 3 tumors per group, totaling at least 2,440 nuclei per tumor, was used to quantify the ratio of Ki67+ cells. At least 5 individual and random microscopic images from each tumor were analyzed.

[4] = system: SF3B1^loss HCC1954 xenografts; experiment: Growth of established xenograft tumors without or with doxycycline; type: in vivo; conditions: with doxycycline vs without
Source text: FIG. 36B is a graph showing growth of established tumors for HCC1954 xenografts without doxycycline (“−Dox”, n=13) or with doxycycline (“+Dox”, n=12) using TR-shSF3B1 #3. ***p≤0.001.
as §1

[5] = system: SF3B1^neutral Cal51 xenografts; experiment: as above; type: in vivo; conditions: with doxycycline vs without
Source text: FIG. 36A is a graph showing growth of established tumors for Cal51 xenografts without doxycycline (“−Dox”, n=13) or with doxycycline (“+Dox”, n=12) using TR-shSF3B1 #3.
as §1

O=C1C(SCCO)=C(SCCO)C(=O)c2ccccc21 [NSC95397]
increased effects on cells with SF3B1 copy-loss or suppression ([1]; cells with SF3B1 copy-loss or suppression): failed to exhibit increased effects

N#CSc1cc(SC#N)c(N)nc1N [PR-619]
SF3B1 expression [2]: significant decrease

O=C1c2ccccc2C(=O)c2oc(-c3cccnc3)nc21 [SJB3-019A]
SF3B1 expression [2]: significant decrease

CO[C@]1(C)C[C@@]2(CO2)[C@H](O)[C@@H](/C=C/C(C)=C/C[C@@H]2O[C@H](C)[C@H](NC(=O)/C=C\[C@H](C)OC(C)=O)C[C@@H]2C)O1 [Spliceostatin A]
cell death ([1]; Hs578T breast cancer cells, when suppression of SF3B1 expression is induced): increased cell death

C=CC(=O)N1C/C(=C\c2ccc([N+](=O)[O-])cc2)C(=O)/C(=C/c2ccc([N+](=O)[O-])cc2)C1 [b-AP15]
SF3B1 expression [2]: significant decrease

B1: TR-shSF3B1#3: doxycycline-inducible shRNA targeting SF3B1 in pLKO-Tet-puro, SEQ ID NO: 12/13 (nucleic acid)
sense: CCGGCAACTCCTTATGGTATCGAATCTCGAGATTCGATACCATAAGGAGTTGTTTTTG
antisense: AATTCAAAAACAACTCCTTATGGTATCGAATCTCGAGATTCGATACCATAAGGAGTTG
number of proliferative Ki67+ cells ([3]; Ki67 immunohistochemistry): reduced
growth of tumor ([3]; luminescent quantification): reduced the growth of tumor
tumor growth [4]: reduced tumor growth was observed
tumor growth [5]: not in SF3B1^neutral Cal51 xenografts
